Bounds are passed on as bounds.

Usually IC50 stands for the midpoint of a concentration-inhibition curve.

Sequence of GCN2 (Q9P2K8 whole entry): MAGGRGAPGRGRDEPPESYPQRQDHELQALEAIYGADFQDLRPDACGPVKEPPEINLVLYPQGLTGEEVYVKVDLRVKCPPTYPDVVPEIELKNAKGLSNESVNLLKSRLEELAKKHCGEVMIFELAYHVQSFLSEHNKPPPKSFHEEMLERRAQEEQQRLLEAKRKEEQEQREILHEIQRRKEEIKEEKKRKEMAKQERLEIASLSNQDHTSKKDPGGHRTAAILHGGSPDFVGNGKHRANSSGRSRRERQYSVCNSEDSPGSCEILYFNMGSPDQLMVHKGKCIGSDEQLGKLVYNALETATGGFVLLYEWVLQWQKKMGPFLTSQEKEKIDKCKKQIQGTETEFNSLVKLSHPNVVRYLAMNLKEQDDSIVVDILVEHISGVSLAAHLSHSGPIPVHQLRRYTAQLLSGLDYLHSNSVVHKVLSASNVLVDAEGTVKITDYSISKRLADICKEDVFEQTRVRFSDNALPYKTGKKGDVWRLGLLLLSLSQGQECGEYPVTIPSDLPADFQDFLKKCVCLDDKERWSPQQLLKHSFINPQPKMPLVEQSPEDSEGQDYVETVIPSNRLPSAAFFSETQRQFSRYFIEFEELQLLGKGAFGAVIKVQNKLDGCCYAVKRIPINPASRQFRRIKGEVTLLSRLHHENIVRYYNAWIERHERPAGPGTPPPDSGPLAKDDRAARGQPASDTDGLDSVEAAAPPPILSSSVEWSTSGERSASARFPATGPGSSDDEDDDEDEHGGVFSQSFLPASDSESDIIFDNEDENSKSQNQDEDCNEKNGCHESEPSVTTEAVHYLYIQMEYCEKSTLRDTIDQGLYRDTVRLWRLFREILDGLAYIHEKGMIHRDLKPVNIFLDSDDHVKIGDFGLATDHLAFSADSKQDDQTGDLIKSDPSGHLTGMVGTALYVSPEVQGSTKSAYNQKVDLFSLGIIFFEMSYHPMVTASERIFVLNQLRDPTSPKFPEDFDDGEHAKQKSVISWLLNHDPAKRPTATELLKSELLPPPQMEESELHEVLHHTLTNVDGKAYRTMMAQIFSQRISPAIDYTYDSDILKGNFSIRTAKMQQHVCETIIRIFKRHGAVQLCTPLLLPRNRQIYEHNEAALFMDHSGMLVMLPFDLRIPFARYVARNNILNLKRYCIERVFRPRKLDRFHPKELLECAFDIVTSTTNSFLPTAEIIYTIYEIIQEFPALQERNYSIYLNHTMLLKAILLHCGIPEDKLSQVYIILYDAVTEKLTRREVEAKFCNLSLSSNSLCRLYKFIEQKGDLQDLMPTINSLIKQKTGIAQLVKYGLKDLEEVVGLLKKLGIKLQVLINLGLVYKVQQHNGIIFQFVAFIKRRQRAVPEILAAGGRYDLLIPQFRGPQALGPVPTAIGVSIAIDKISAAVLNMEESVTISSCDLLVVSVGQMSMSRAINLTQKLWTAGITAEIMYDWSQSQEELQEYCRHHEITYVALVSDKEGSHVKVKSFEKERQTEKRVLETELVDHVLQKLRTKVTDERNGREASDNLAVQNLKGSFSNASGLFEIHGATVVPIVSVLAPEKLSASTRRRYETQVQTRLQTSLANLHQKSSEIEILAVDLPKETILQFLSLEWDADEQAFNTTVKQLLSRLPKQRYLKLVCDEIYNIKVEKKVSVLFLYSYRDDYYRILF

The assay addresses GCN2 (Homo sapiens (Human), UniProt Q9P2K8). The assay can be described thus: GCN2 Biochemical Assay (TR-FRET, GFP-eIF2S1 substrate phosphorylation). Conditions: read-out: IC50 (GCN2 Inhibitory Activity). The method in brief:
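In-house GCN2 (1.6 nM 2× stock) phosphorylates GFP-eIF2S1 (50 nM 2× stock) with ATP (0.2 mM 2× stock) and tRNA, pH 7.5, 70 min at room temperature; 10-point 3.16-fold compound series. TR-FRET detection with Tb-anti-phospho antibody, 2–3 h, Ex 340/Em 490/520 nm; artifact plate spiked with phospho-substrate.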
A general note: In TR-FRET formats the signal depends on donor and acceptor labels being close together.
For `Cc1cnc(Nc2cc(C)n(C)n2)nc1-c1c[nH]c2c(N3Cc4c(cccc4C4=CCNCC4)C3=O)cccc12` [Example 394, 2-(3-(2-((1,5-dimethyl-1H-pyrazol-3-yl)amino)-5-methylpyrimidin-4-yl)-1H-indol-7-yl)-4-(1,2,3,6-tetrahydropyridin-4-yl)isoindolin-1-one], the IC50 is under 10 nM.
In the case of `Cc1cnc(Nc2cc(C)n(C)n2)nc1-c1c[nH]c2c(NC(=O)CN3CC[C@H](Oc4cc(N5CCCC5)ncn4)C3)cccc12` [Example 158, (S)-N-(3-(2-((1,5-dimethyl-1H-pyrazol-3-yl)amino)-5-methylpyrimidin-4-yl)-1H-indol-7-yl)-2-(3-((6-(pyrrolidin-1-yl)pyrimidin-4-yl)oxy)pyrrolidin-1-yl)acetamide] it was under 10 nM; in that of `Cc1cnc(Nc2cc(C)n(C)n2)nc1-c1c[nH]c2c(N3Cc4c(cccc4-c4ccccc4CO)C3=O)cccc12` [Example 437, 2-(3-(2-((1,5-dimethyl-1H-pyrazol-3-yl)amino)-5-methylpyrimidin-4-yl)-1H-indol-7-yl)-4-(2-(hydroxymethyl)phenyl)isoindolin-1-one], under 10 nM; in that of `Cc1cnc(Nc2cc(C)n(C)n2)nc1-c1c[nH]c2c(N3Cc4c(cccc4-c4ccc(CO)cc4)C3=O)cccc12` [Example 460, 2-(3-(2-((1,5-dimethyl-1H-pyrazol-3-yl)amino)-5-methylpyrimidin-4-yl)-1H-indol-7-yl)-4-(4-(hydroxymethyl)phenyl)isoindolin-1-one], under 10 nM.
For `CCCCCc1cnc(O[C@H]2CCN(CC(=O)Nc3cccc4c(-c5nc(Nc6cc(C)n(C)n6)ncc5C)c[nH]c34)C2)nc1` [Example 102, (S)-N-(3-(2-((1,5-dimethyl-1H-pyrazol-3-yl)amino)-5-methylpyrimidin-4-yl)-1H-indol-7-yl)-2-(3-((5-pentylpyrimidin-2-yl)oxy)pyrrolidin-1-yl)acetamide] the value was 10 to 100 nM.
With `Cc1cnc(Nc2cc(C)n(C)n2)nc1-c1c[nH]c2c(N3Cc4c(N)cccc4C3=O)cccc12` [Example 272, 4-amino-2-(3-(2-((1,5-dimethyl-1H-pyrazol-3-yl)amino)-5-methylpyrimidin-4-yl)-1H-indol-7-yl)isoindolin-1-one], the concentration for half-maximal inhibition (IC50) is under 10 nM.
In the case of `Cc1cnc(Nc2cc(C)n(C)n2)nc1-c1c[nH]c2c(N3Cc4c(NC(=O)C5CCCCCC5)cccc4C3=O)cccc12` [Example 312, N-(2-(3-(2-((1,5-dimethyl-1H-pyrazol-3-yl)amino)-5-methylpyrimidin-4-yl)-1H-indol-7-yl)-1-oxoisoindolin-4-yl)cycloheptanecarboxamide] it was 10 to 100 nM.
On to `COC(=O)c1[nH]ccc1O[C@H]1CCN(CC(=O)Nc2cccc3c(-c4nc(Nc5cc(C)n(C)n5)ncc4C)c[nH]c23)C1` [Example 120, methyl (S)-3-((1-(2-((3-(2-((1,5-dimethyl-1H-pyrazol-3-yl)amino)-5-methylpyrimidin-4-yl)-1H-indol-7-yl)amino)-2-oxoethyl)pyrrolidin-3-yl)oxy)-1H-pyrrole-2-carboxylate], for which the half-inhibitory concentration (IC50) was under 10 nM.
Take `COCCNc1nccc(O[C@H]2CCN(CC(=O)Nc3cccc4c(-c5nc(Nc6cc(C)n(C)n6)ncc5C)c[nH]c34)C2)n1` [Example 216, (S)-N-(3-(2-((1,5-dimethyl-1H-pyrazol-3-yl)amino)-5-methylpyrimidin-4-yl)-1H-indol-7-yl)-2-(3-((2-((2-methoxyethyl)amino)pyrimidin-4-yl)oxy)pyrrolidin-1-yl)acetamide]: the IC50 is under 10 nM.
In the case of `CCNc1nccc(O[C@H]2CCN(CC(=O)Nc3cccc4c(-c5nc(Nc6cc(C)n(C)n6)ncc5C)c[nH]c34)C2)n1` [Example 203, (S)-N-(3-(2-((1,5-dimethyl-1H-pyrazol-3-yl)amino)-5-methylpyrimidin-4-yl)-1H-indol-7-yl)-2-(3-((2-(ethylamino)pyrimidin-4-yl)oxy)pyrrolidin-1-yl)acetamide] it was under 10 nM.

The values above are taken from patent US20240025884A1 (Dong-A ST Co., Ltd., priority 2022, published 2024).
